Source: patent US6737383B1, “Herbicidal oxadiazolidines” (priority 1999, dated 2004)

Assays:
rice = experiment: Test B flood test rice; format: in vivo, Oryza sativa
Summary of the method: (§1)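 Plants were grown to the 2-leaf stage before treatment with test chemical, then held in a greenhouse for twelve to sixteen days. Injury was visually rated against untreated controls on a 0–10 scale, where 0 is no effect and 10 is complete control.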

pigweed = experiment: Test B pre/postemergence pigweed; format: in vivo, Amaranthus retroflexus
Summary of the method: (§2)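 Test chemicals in a non-phytotoxic solvent mixture with surfactant were sprayed preemergence onto planted seeds and postemergence onto plants 2 to 18 cm tall (1- to 4-leaf stage). After twelve to sixteen days in a greenhouse, injury was visually rated against untreated controls from 0 (no effect) to 10 (complete control).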

blackgrass = experiment: Test B pre/postemergence blackgrass; format: in vivo, Alopecurus myosuroides
Summary of the method: as §2

giant foxtail = experiment: Test B pre/postemergence giant foxtail; format: in vivo, Setaria faberii
Summary of the method: as §2

duck salad = experiment: Test B flood test duck salad; format: in vivo, Heteranthera limosa
Summary of the method: as §1

purple nutsedge = experiment: Test B pre/postemergence purple nutsedge; format: in vivo, Cyperus rotundus
Summary of the method: as §2

crabgrass = experiment: Test B pre/postemergence crabgrass; format: in vivo, Digitaria sanguinalis
Summary of the method: as §2

corn = experiment: Test B pre/postemergence corn; format: in vivo, Zea mays
Summary of the method: as §2

soybean = experiment: Test B pre/postemergence soybean; format: in vivo, Glycine max
Summary of the method: as §2

smallflower flatsedge = experiment: Test B flood test smallflower flatsedge; format: in vivo, Cyperus difformis
Summary of the method: as §1

surinam grass = experiment: Test B pre/postemergence surinam grass; format: in vivo, Brachiaria decumbens
Summary of the method: as §2

velvetleaf = experiment: Test B pre/postemergence velvetleaf; format: in vivo, Abutilon theophrasti
Summary of the method: as §2

wheat = experiment: Test B pre/postemergence wheat; format: in vivo, Triticum aestivum
Summary of the method: as §2

bedstraw = experiment: Test B pre/postemergence bedstraw; format: in vivo, Galium aparine
Summary of the method: as §2

wild oat = experiment: Test B pre/postemergence wild oat; format: in vivo, Avena fatua
Summary of the method: as §2

morningglory = experiment: Test B pre/postemergence morningglory; format: in vivo, Ipomoea hederacea
Summary of the method: as §2

[1] = Rate 62 g/ha, flood test species, Pre-emergence, visual evaluation after twelve to sixteen days
[2] = Rate 125 g/ha, under heading Pre-emergence, flood test species, visual evaluation after twelve to sixteen days
[3] = Rate 250 g/ha, Pre-emergence (flood test species), scale 0 to 10, 0 is no effect, 10 is complete control
[4] = Rate 500 g/ha, Pre-emergence section of Table B, 0 to 10 scale (0 no effect, 10 complete control)
[5] = Postemergence, Rate 62 g/ha, scale 0 to 10, 0 is no effect, 10 is complete control
[6] = Postemergence, Rate 125 g/ha, scale of 0 to 10 where 0 is no effect and 10 is complete control
[7] = Postemergence, Rate 250 g/ha, scale of 0 to 10, 0 is no effect, 10 is complete control
[8] = Preemergence, Rate 62 g/ha, scale of 0 to 10 where 0 is no effect and 10 is complete control
[9] = Preemergence, Rate 125 g/ha, scale of 0 to 10 where 0 is no effect and 10 is complete control
[10] = Preemergence, Rate 250 g/ha, scale 0 to 10 (0 no effect, 10 complete control)
[11] = Preemergence, Rate 500 g/ha, scale of 0 to 10 where 0 is no effect and 10 is complete control
[12] = Postemergence, Rate 500 g/ha, scale of 0 to 10 where 0 is no effect and 10 is complete control

C=C(Cl)Cn1c(=O)on(C(=O)N(c2ccc(F)cc2F)C(C)C)c1=O [Compound 634]
8: Blackgrass plant response rating (blackgrass; [7]) | Plant response rating, Blackgrass (blackgrass; [12]) | Plant response rating, Blackgrass (blackgrass; [10]) | Plant response rating, Giant foxtail (giant foxtail; [6]) | Crabgrass plant response rating (crabgrass; [9])
4: Redroot pigweed plant response rating (pigweed; [9]) | Blackgrass plant response rating (blackgrass; [8]) | Plant response rating, Giant foxtail (giant foxtail; [5]) | Plant response rating, Velvetleaf (velvetleaf; [10])
10: Plant response rating, Redroot pigweed (pigweed; [10]) | Plant response rating, Redroot pigweed (pigweed; [11]) | Giant foxtail plant response rating (giant foxtail; [9]) | Plant response rating, Giant foxtail (giant foxtail; [10]) | Plant response rating, Giant foxtail (giant foxtail; [11]) | Plant response rating, Crabgrass (crabgrass; [10]) | Plant response rating, Crabgrass (crabgrass; [11]) | Plant response rating, B. signalgrass (surinam grass; [11])
1: Plant response rating, Redroot pigweed (pigweed; [5]) | B. signalgrass plant response rating (surinam grass; [8]) | Plant response rating, Morningglory (morningglory; [5]) | Plant response rating, Morningglory (morningglory; [6])
0: Plant response rating, Rice (0 to 10 scale, 0 is no effect, 10 is complete control) (rice; [1]) | Rice plant response rating (0 to 10 scale, 0 is no effect, 10 is complete control) (rice; [2]) | Rice plant response rating (rice; [3]) | Rice plant response rating (rice; [4]) | Redroot pigweed plant response rating (pigweed; [8]) | Plant response rating, Ducksalad (0 to 10 scale, 0 is no effect, 10 is complete control) (duck salad; [1]) | Ducksalad plant response rating (0 to 10 scale, 0 is no effect, 10 is complete control) (duck salad; [2]) | Ducksalad plant response rating (duck salad; [3]) | Ducksalad plant response rating (duck salad; [4]) | Plant response rating, Nutsedge (purple nutsedge; [5]) | Plant response rating, Nutsedge (purple nutsedge; [6]) | Plant response rating, Nutsedge (purple nutsedge; [12]) | Nutsedge plant response rating (purple nutsedge; [8]) | Nutsedge plant response rating (purple nutsedge; [9]) | Plant response rating, Nutsedge (purple nutsedge; [10]) | Plant response rating, Nutsedge (purple nutsedge; [11]) | Plant response rating, Crabgrass (crabgrass; [5]) | Plant response rating, Corn (corn; [5]) | Plant response rating, Corn (corn; [6]) | Corn plant response rating (corn; [7]) | Plant response rating, Corn (corn; [12]) | Corn plant response rating (corn; [8]) | Corn plant response rating (corn; [9]) | Plant response rating, Corn (corn; [10]) | Plant response rating, Corn (corn; [11]) | Soybean plant response rating (soybean; [8]) | Soybean plant response rating (soybean; [9]) | Plant response rating, Soybean (soybean; [10]) | Plant response rating, Soybean (soybean; [11]) | Plant response rating, S. Flatsedge (0 to 10 scale, 0 is no effect, 10 is complete control) (smallflower flatsedge; [1]) | S. Flatsedge plant response rating (0 to 10 scale, 0 is no effect, 10 is complete control) (smallflower flatsedge; [2]) | S. Flatsedge plant response rating (smallflower flatsedge; [3]) | S. Flatsedge plant response rating (smallflower flatsedge; [4]) | Plant response rating, B. signalgrass (surinam grass; [5]) | Plant response rating, B. signalgrass (surinam grass; [6]) | B. signalgrass plant response rating (surinam grass; [7]) | Plant response rating, Velvetleaf (velvetleaf; [5]) | Plant response rating, Velvetleaf (velvetleaf; [6]) | Velvetleaf plant response rating (velvetleaf; [8]) | Velvetleaf plant response rating (velvetleaf; [9]) | Plant response rating, Wheat (wheat; [5]) | Plant response rating, Wheat (wheat; [6]) | Wheat plant response rating (wheat; [7]) | Wheat plant response rating (wheat; [8]) | Wheat plant response rating (wheat; [9]) | Plant response rating, Wheat (wheat; [10]) | Plant response rating, Wheat (wheat; [11]) | Plant response rating, Bedstraw (bedstraw; [5]) | Plant response rating, Bedstraw (bedstraw; [6]) | Bedstraw plant response rating (bedstraw; [7]) | Bedstraw plant response rating (bedstraw; [9]) | Plant response rating, Wild oats (wild oat; [5]) | Plant response rating, Wild oats (wild oat; [6]) | Wild oats plant response rating (wild oat; [7]) | Morningglory plant response rating (morningglory; [8]) | Morningglory plant response rating (morningglory; [9]) | Plant response rating, Morningglory (morningglory; [10]) | Plant response rating, Morningglory (morningglory; [11])
5: Plant response rating, B. signalgrass (surinam grass; [12]) | B. signalgrass plant response rating (surinam grass; [9]) | Wild oats plant response rating (wild oat; [9]) | Plant response rating, Wild oats (wild oat; [10])
9: Plant response rating, Blackgrass (blackgrass; [11]) | Giant foxtail plant response rating (giant foxtail; [7]) | Plant response rating, Giant foxtail (giant foxtail; [12]) | Giant foxtail plant response rating (giant foxtail; [8]) | Plant response rating, Crabgrass (crabgrass; [12])
2: Plant response rating, Redroot pigweed (pigweed; [6]) | Redroot pigweed plant response rating (pigweed; [7]) | Plant response rating, Blackgrass (blackgrass; [5]) | Plant response rating, Soybean (soybean; [6]) | Wild oats plant response rating (wild oat; [8]) | Morningglory plant response rating (morningglory; [7]) | Plant response rating, Morningglory (morningglory; [12])
3: Plant response rating, Crabgrass (crabgrass; [6]) | Plant response rating, Soybean (soybean; [5]) | Soybean plant response rating (soybean; [7]) | Velvetleaf plant response rating (velvetleaf; [7])
7: Crabgrass plant response rating (crabgrass; [7]) | Crabgrass plant response rating (crabgrass; [8]) | Plant response rating, B. signalgrass (surinam grass; [10]) | Plant response rating, Wild oats (wild oat; [11])
6: Plant response rating, Blackgrass (blackgrass; [6]) | Blackgrass plant response rating (blackgrass; [9]) | Plant response rating, Velvetleaf (velvetleaf; [11])
